For the assay, the target named is T1, EGFR TMLRCS (BaF3-TMLRCS cell line) (Homo sapiens, UniProt P00533, C797S/L858R/T790M).
T1 construct: host or cells: Ba/F3 (BaF3-TMLRCS), maintained under puromycin selection
Kind of assay: HTRF Phospho EGFR TMLRCS Assay (Cellular). As to conditions: BaF3-TMLRCS cells, 4 hours incubation. Type of assay: cell-based. On the procedure:
HTRF Phospho EGFR TMLRCS Assay (Cellular)
BaF3-TMLRCS cell line were obtained from Crownbio (San Diego, CA, USA). Cells were maintained at 37° C., 5% CO2 in RPMI ATCC (Gibco 31870)+2 mM Glutamine+0.5 μg/ml Puromycin supplemented with 10% fetal bovine serum (FBS) (Gibco).
Cells are transferred as above to Greiner Bio-One, Nr. 784-08 micro-titerplate at 20000 cells/well in 12.5 μl of growth medium/well after the plates had been pre-filled with 12.5 nl of DMSO solutions of the to be tested compounds (in dose response) or DMSO only. After spinning the plates at 300×g for 30 seconds the cells were incubated for 4 hours at 37 C, 5% CO2, 95% humidity. The cells were lysed by adding to the compound mix 4 μl/well of the supplemented lysis buffer (Cis-bio, Phospho-EGFR HTRF kit, 64EG1PEH), followed by incubation for 30 min at room temperature with shaking (400 rpm). The plates were then frozen and stored overnight at −80 C. […] The lidded plates were then incubated for 4 h at room temperature before reading the fluorescence emission at 616 and 665 nm using an Envision reader (Perkin Elmer). Data was analyzed in similar fashion as above using the normalized ratio of the 665 to 616 signals multiplied by 10000.
In general terms: In TR-FRET formats the signal depends on donor and acceptor labels being close together.

SMILES strings stand for the structures.

T1 sequence (P00533 25-1210 T790M/C797S/L858R): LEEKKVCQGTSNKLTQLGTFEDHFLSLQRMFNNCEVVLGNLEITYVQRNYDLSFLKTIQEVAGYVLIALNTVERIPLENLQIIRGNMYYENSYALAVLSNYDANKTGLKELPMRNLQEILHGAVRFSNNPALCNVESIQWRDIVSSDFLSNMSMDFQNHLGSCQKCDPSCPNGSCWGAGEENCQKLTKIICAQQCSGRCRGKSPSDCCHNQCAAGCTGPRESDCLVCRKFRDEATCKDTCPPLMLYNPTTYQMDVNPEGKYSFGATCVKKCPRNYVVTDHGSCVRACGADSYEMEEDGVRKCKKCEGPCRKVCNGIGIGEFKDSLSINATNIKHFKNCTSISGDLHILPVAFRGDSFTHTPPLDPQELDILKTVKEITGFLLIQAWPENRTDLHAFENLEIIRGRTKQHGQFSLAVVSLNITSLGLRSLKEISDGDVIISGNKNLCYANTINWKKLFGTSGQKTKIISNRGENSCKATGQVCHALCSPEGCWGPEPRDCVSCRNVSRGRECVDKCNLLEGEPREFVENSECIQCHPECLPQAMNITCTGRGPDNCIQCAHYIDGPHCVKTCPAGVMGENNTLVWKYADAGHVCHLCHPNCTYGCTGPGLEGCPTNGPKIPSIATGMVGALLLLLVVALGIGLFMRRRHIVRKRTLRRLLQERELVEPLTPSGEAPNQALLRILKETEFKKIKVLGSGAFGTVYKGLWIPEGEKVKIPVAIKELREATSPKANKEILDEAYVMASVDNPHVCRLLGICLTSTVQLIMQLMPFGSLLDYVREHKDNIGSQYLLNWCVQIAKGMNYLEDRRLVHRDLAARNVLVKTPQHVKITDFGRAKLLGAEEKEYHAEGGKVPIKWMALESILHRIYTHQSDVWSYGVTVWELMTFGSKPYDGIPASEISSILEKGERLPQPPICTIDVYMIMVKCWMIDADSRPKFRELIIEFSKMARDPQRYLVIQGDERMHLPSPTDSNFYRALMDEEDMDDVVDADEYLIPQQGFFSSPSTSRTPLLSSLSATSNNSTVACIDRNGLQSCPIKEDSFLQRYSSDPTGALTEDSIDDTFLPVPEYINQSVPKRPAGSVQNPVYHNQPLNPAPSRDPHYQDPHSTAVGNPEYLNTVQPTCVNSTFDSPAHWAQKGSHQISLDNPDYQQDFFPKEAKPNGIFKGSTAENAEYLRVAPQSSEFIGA

By IC50 is commonly meant the midpoint of a concentration-inhibition curve. A higher IC50 goes with weaker potency in that assay. With `O=C(Nc1nccs1)C(c1ncn2c1C[C@@H](F)C2)n1cc2c(Cl)cc(-c3ccc(N4CCOCC4)cc3)c(Cl)c2n1` (stereo partly drawn) [Example 1, 2-[4,7-Dichloro-6-(4-morpholinophenyl)indazol-2-yl]-2-[(6R)-6-fluoro-6,7-dihydro-5H-pyrrolo[1,2-c]imidazol-1-yl]-N-thiazol-2-yl-acetamide], the IC50 is 5 nM.
